# System: NOX-2
# Experiment: Immunohistochemistry, frontal cortex: NOX-2
# Format: in vivo, mice
# Settings: vs control
# Excerpt: Following the acute death or the sacrifice of the animals (after 5-h observation period by dislocation of the spine), brains were taken. These were fixed in 4% buffered formalin and then sampled and incorporated into the paraffin (Leica ASP300 processor, Histoline TEC2900 incorporator; Leica Microsystems Srl, Buccinasco, Milano, Italy). Subsequently, the cut (performed with the Leica HistoCore autocut microtome; Leica Microsystems Srl, Buccinasco, Milano, Italy) was designed to create sections with a thickness of 5 µm for each sample.
# On 5-µm-thick paraffined […] sections, we evaluated the expression of a panel of markers: heat shock proteins (HSP27, HSP70, HSP90), SMAC/DIABLO, NF-kB, iNOS, NOX-2, NT, 8-OHDG.
# We used a detection system composed of a biotinylated secondary antibody and HRP-conjugated streptavidin (4plus HRP Universal Detection, Biocare Medical). […] In the pictures (sections of the frontal cortex; Figure 3, Figure 4 and Figure 5) to evaluate the variation in the expression of markers (Smac, NOX2, iNOS, 8-OHdG, NT, HSP27, HSP70, HSP90) following treatments, the change in intensity of brown colour (staining of the immunohistochemical technique) in the control and treated tissue was measured. Quantification of Smac, NOX2, iNOS, 8-OHdG, NT, HSP27, HSP70 and HSP90 positive-stained areas was performed by the ImageJ software (imagej.nih.gov/ij/ Accessed date 12 May 2020). […]
compound,measurement,setting,value
"Cc1ccc(C2OC(N)=NC2C)cc1 (stereo not drawn) [cis-4,4’-DMAR, 4-methyl-5-(4-methylphenyl)-4,5-dihydrooxazol-2-amine]",Immunoreactivity of NOX-2 in the frontal cortex,60 mg/kg,did not affect
same,Immunoreactivity of NOX-2 in the frontal cortex,10 and 30 mg/kg,reduced
